Test results as given in US9815851B2, “Pyrrolo carboxamides as modulators of orphan nuclear receptor RAR-related orphan receptor-gamma (RORγ, NR1F3) activity and for the treatment of chronic inflammatory and autoimmune diseases” (PHENEX PHARMACEUTICALS AG, priority 2011, dated 2017).
Read-outs that look alike come from different tables or passages of the source.

Key:
RORγ = biological target: T1, RORγ (UniProt P51449); assay: RORγ Gal4 Reporter Gene Assay in 293T cells (firefly and renilla luciferase); format: cell-based, human
T1 sequence (P51449 1-518): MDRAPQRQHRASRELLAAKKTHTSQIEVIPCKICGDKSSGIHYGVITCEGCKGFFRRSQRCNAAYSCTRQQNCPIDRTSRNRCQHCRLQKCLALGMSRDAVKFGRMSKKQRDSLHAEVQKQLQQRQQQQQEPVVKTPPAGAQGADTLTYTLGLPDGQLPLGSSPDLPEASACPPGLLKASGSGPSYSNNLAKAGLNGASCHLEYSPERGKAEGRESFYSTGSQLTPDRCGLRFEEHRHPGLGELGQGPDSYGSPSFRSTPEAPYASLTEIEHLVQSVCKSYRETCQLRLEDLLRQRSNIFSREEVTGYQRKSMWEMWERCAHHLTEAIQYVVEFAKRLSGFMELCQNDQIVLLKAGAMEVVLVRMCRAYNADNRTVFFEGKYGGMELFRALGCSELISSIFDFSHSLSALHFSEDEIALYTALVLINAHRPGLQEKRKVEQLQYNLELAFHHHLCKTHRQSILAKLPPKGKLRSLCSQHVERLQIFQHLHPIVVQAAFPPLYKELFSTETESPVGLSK

[1] = biological target: T2, RORγ ligand binding domain (LBD) (Homo sapiens, UniProt P51449); assay: TR-FRET Activity Assay (ligand sensing, RORγ-LBD / coactivator peptide interaction, LANCE); format: biochemical
T2 construct: made in house; host or cells: E. coli BL-21 (BL3), vector pDEST15
T2 sequence (P51449 269-508 limits assumed): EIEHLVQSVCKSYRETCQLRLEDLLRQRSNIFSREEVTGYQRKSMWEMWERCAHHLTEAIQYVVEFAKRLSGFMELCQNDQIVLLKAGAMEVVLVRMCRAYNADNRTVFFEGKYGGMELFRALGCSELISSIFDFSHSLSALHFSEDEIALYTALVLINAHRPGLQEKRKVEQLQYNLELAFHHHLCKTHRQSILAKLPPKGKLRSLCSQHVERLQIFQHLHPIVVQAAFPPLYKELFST

[2] = second value of the cell, Gal4 reporter gene assay in 293T cells, firefly luciferase
[3] = third value of the cell, Gal4 reporter gene assay in 293T cells, renilla normalised luciferase
[4] = first value of the cell FRET/FF/REN, TR-FRET activity assay, read-out: pIC50 (FRET) (converted)

Compound	pIC50 (FF) (RORγ; [2])	pIC50 (REN) (RORγ; [3])	IC50 [1, 4] [µM]	pIC50 (FF) (RORγ)	pIC50 (REN) (RORγ)	IC50 [1] [µM]
Cc1c(C(=O)NCCCCC[S+](C)[O-])cc(-c2cc(C(C)(C)C)c3c(c2)C2(CCO3)CC2)n1CC1CCCCC1 (stereo not drawn) [17/79]	–	–	–	5.8/6.4/6.3	5.8/6.4/6.3	1.58
Cc1c(C(=O)NCCCS(C)(=O)=O)cc(-c2cc(C(C)(C)C)c3c(c2)C2(CCO3)CC2)n1CC1CCCCC1 [17/80]	6.9	7.0	0.501	–	–	–
Cc1c(C(=O)NCC2(O)CCS(=O)(=O)CC2)cc(-c2cc(C(C)(C)C)c3c(c2)C2(CCO3)CC2)n1CC1CCCCC1 [17/81]	–	–	–	6.2/7.1/7.1	6.2/7.1/7.1	0.631
CCN(C(C)(C)C)S(=O)(=O)c1ccc(-c2cc(C(=O)NC3CCOCC3)c(C)n2CC2CCCCC2)cc1C(F)(F)F [17/85]	–	–	–	<4.7/7.4/7.5	<4.7/7.4/7.5	> 20
Cc1c(C(=O)NC2CCOCC2)cc(-c2ccc(S(=O)(=O)NC(C)(C)C)c(C(F)(F)F)c2)n1CC1CCCC(C(F)(F)F)C1 (stereo not drawn) [17/87]	–	–	–	6.3/6.9/6.9	6.3/6.9/6.9	0.501
Cc1c(C(=O)NCC2(C(N)=O)CCOCC2)cc(-c2ccc(S(=O)(=O)NC(C)(C)C)c(C(C)(C)C)c2)n1CC1CCCCC1 [17/90]	–	–	–	5.8/7.9/8.0	5.8/7.9/8.0	1.58
Cc1c(C(=O)NC2CS(=O)(=O)C2)cc(-c2ccc(S(=O)(=O)NC(C)(C)C)c(C(C)(C)C)c2)n1CC1CCCCC1 [17/91]	–	–	–	6.2/7.1/7.0	6.2/7.1/7.0	0.631
Cc1c(C(=O)NC2CCS(=O)(=O)CC2)cc(-c2ccc(S(=O)(=O)NC(C)(C)C)c(C(C)(C)C)c2)n1CC1CCCCC1 [17/92]	–	–	–	6.0/7.3/7.1	6.0/7.3/7.1	1
Cc1c(C(=O)NC2CCOCC2)cc(-c2ccc(S(=O)(=O)N3CCCC(C(F)(F)F)C3)c(C(C)(C)C)c2)n1CC1CCCCC1 (stereo not drawn) [17/102]	–	–	–	6.6/6.8/6.9	6.6/6.8/6.9	0.251
CC(=O)c1cc(-c2cc(C(=O)NC3CCOCC3)c(C)n2CC2CCCCC2)cc(C(C)(C)C)c1 [17/103]	–	–	–	6.1/6.7/6.8	6.1/6.7/6.8	0.794
Cc1c(C(=O)NC2CCOCC2)cc(-c2cc3c(c(C(C)(C)C)c2)OCCC3=O)n1CC1CCCCC1 [17/104]	6.5	6.7	0.501	–	–	–
Cc1c(C(=O)NC2CCOCC2)cc(-c2cc3c(c(C(C)(C)C)c2)OCCC3O)n1CC1CCCCC1 (stereo not drawn) [17/105]	6.1	6.3	2	–	–	–
Cc1c(C(=O)NC2CCOCC2)cc(-c2ccc(S(=O)(=O)NC(C)(C)CO)c(C(F)(F)F)c2)n1CC1CCCCC1 [17/107]	6.9	6.9	1	–	–	–
Cc1c(C(=O)NC2CCOCC2)cc(-c2ccc(S(=O)(=O)NC(C)(C)CCO)c(C(F)(F)F)c2)n1CC1CCCCC1 [17/108]	6.9	7.1	1	–	–	–
COCC(C)(C)NS(=O)(=O)c1ccc(-c2cc(C(=O)NC3CCOCC3)c(C)n2CC2CCCCC2)cc1C(F)(F)F [17/109]	–	–	–	6.2/7.2/7.3	6.2/7.2/7.3	0.631
Cc1c(C(=O)NC2CCOCC2)cc(-c2ccc(S(=O)(=O)NC(C)C)c(C(F)(F)F)c2)n1CC1CCCCC1 [17/112]	7.4	7.5	0.316	–	–	–
Cc1c(C(=O)NC2CCOCC2)cc(-c2ccc(S(=O)(=O)NC(C)(C)C)c(C(F)F)c2)n1CC1CCCCC1 [17/115]	–	–	–	6.5/7.9/8.0	6.5/7.9/8.0	0.316
CC(C)(C)NS(=O)(=O)c1ccc(-c2cc(C(=O)NC3CCOCC3)cn2CC2CCCCC2)cc1C(C)(C)C [17/116]	7.3	7.3	–	–	–	0.631
CC(C)(C)NS(=O)(=O)c1ccc(-c2cc(C(=O)NC3CCOCC3)c(CO)n2CC2CCCCC2)cc1C(C)(C)C [17/117]	–	–	–	6.0/7.6/7.7	6.0/7.6/7.7	1

The next lines start with results.

pIC50 (FF) (RORγ; [2])	pIC50 (REN) (RORγ; [3])	IC50 [1, 4] [µM]	Compound	pIC50 (FF) (RORγ)	pIC50 (REN) (RORγ)	IC50 [1] [µM]
6.7	6.7	0.794	Cc1c(-c2cc(C(=O)NCC(C)(C)O)c(C)n2CC2CCCCC2)nc(C2(C)CC2)nc1C(C)(C)C [17/82]	–	–	–
8.2	8.3	0.126	CCC(C)(C)NS(=O)(=O)c1ccc(-c2cc(C(=O)NC3CCOCC3)c(C)n2CC2CCCCC2)cc1C(F)(F)F [17/83]	–	–	–
7.2	7.2	> 20	Cc1c(C(=O)NC2CCOCC2)cc(-c2ccc(S(=O)(=O)N3CCCC3(C)C)c(C(F)(F)F)c2)n1CC1CCCCC1 [17/84]	–	–	–
7.1	7.1	0.316	Cc1c(C(=O)NCC(C)(C)O)cc(-c2cc(C(C)(C)C)c3c(c2)C(C)(C)CO3)n1CC1CCCCC1 [17/86]	–	–	–
6.9	6.9	1.58	Cc1c(C(=O)NC2CCNC(=O)C2)cc(-c2ccc(S(=O)(=O)NC(C)(C)C)c(C(C)(C)C)c2)n1CC1CCCCC1 (stereo not drawn) [17/89]	–	–	–
6.8	6.9	1	Cc1c(C(=O)N2CCC(C)(O)CC2)cc(-c2ccc(S(=O)(=O)NC(C)(C)C)c(C(C)(C)C)c2)n1CC1CCCCC1 [17/93]	–	–	–
6.8	6.7	1.26	Cc1c(C(=O)N2CC(O)C2)cc(-c2ccc(S(=O)(=O)NC(C)(C)C)c(C(C)(C)C)c2)n1CC1CCCCC1 [17/94]	–	–	–
7.8	7.7	0.631	Cc1c(C(=O)N(C)C2CCOCC2)cc(-c2ccc(S(=O)(=O)NC(C)(C)C)c(C(C)(C)C)c2)n1CC1CCCCC1 [17/95]	–	–	–
6.9	7.0	3.16	Cc1c(C(=O)NC2CCOCC2)cc(-c2cc(S(=O)(=O)N3CCCCC3)c3ccccn23)n1CC1CCCCC1 [17/96]	–	–	–
8.0	8.0	0.126	Cc1c(C(=O)NC2CCOCC2)cc(-c2ccc(S(=O)(=O)NC(C)(C)C)c(C(F)(F)F)c2)n1CC1CCCCC1 [17/97]	–	–	–
6.8	6.9	0.316	CCNC(=O)c1cc(-c2ccc(S(=O)(=O)NC(C)(C)C)c(C(C)(C)C)c2)n(CC2CCCCC2)c1C [17/98]	–	–	–
6.9	7.0	0.251	Cc1c(C(=O)NC2CC2)cc(-c2ccc(S(=O)(=O)NC(C)(C)C)c(C(C)(C)C)c2)n1CC1CCCCC1 [17/99]	–	–	–
7.7	7.7	0.794	Cc1c(C(=O)NC2CCOCC2)cc(-c2ccc(S(=O)(=O)NCC(F)(F)F)c(C(C)(C)C)c2)n1CC1CCCCC1 [17/101]	–	–	–
7.3	7.3	0.501	Cc1c(C(=O)NC2CCOCC2)cc(-c2ccc(S(=O)(=O)NC(C)(C)C)c(OC(F)F)c2)n1CC1CCCCC1 [17/106]	–	–	–
6.3	6.5	2	CNS(=O)(=O)c1ccc(-c2cc(C(=O)NC3CCOCC3)c(C)n2CC2CCCCC2)cc1C(F)(F)F [17/110]	–	–	–
7.2	7.3	0.316	CCCNS(=O)(=O)c1ccc(-c2cc(C(=O)NC3CCOCC3)c(C)n2CC2CCCCC2)cc1C(F)(F)F [17/111]	–	–	–
6.8	6.8	0.501	Cc1c(C(=O)NC2CCOCC2)cc(-c2cc(Cl)c(S(=O)(=O)NC(C)(C)C)c(C(F)(F)F)c2)n1CC1CCCCC1 [17/113]	–	–	–
6.5	6.4	0.631	Cc1c(C(=O)NCCCCCS(N)(=O)=O)cc(-c2cc(C(C)(C)C)c3c(c2)C2(CCO3)CC2)n1CC1CCCCC1 [17/114]	–	–	–
6.3	6.5	10	CC(C)(C)NS(=O)(=O)c1ccc(-c2cc(C(=O)NC3CCOCC3)c(CF)n2CC2CCCCC2)cc1C(C)(C)C [17/118]	–	–	–
7.6	7.7	0.501	CC(C)(C)NS(=O)(=O)c1ccc(-c2cc(C(=O)NC3CCOCC3)c(Cl)n2CC2CCCCC2)cc1C(C)(C)C [17/119]	–	–	–
6.1	6.0	2.51	CCNC(=O)NC(C)(C)CNC(=O)c1cc(-c2cc(C(C)(C)C)c3c(c2)C2(CCO3)CC2)n(CC2CCCCC2)c1C [17/120]	–	–	–
7.6	7.7	0.316	Cc1c(C(=O)NCC(C)(C)NC(=O)C(C)O)cc(-c2cc(C(C)(C)C)cc(C3(C)CC3)c2)n1CC1CCCCC1 (stereo not drawn) [17/121]	–	–	–
